# Experimental data reported in patent publication US20190046662A1, “Compositions and Methods for Treating Neuropathic Pain” (Rutgers, The State University of New Jersey, priority 2016, published 2019).
# Target: T1, hTac1-hM4D (Homo sapiens, UniProt P08173, A203G/Y113C)
# T1 construct: expressed in transfected cells; host or cells: rat trigeminal ganglion neurons in vivo, viral vector with Tac1 promoter
# T1 sequence (P08173 1-479 Y113C/A203G): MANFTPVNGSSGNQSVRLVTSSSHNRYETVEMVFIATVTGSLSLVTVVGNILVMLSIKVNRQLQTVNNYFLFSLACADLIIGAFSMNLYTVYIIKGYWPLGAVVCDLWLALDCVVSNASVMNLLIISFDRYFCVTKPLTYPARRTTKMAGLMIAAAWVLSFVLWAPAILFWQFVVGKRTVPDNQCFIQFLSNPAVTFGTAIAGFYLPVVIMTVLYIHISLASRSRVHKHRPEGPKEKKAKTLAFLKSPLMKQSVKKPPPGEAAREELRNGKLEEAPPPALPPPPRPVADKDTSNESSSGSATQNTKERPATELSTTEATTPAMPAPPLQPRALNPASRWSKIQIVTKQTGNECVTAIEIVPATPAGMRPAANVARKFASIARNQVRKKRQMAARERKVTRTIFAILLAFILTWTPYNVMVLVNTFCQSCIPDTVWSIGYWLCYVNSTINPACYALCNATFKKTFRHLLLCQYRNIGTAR
# Assay: Pin-prick response score, Tac1-DREADD (hTac1-hM4D) in trigeminal ganglion, non-CCI animals
# Type: in vivo, rat
# Conditions: females, n=7 per group, CNO i.p. vs vehicle
# Text: The effects of Tac1-DREADD activation with CNO on pin-prick response score were also studied (FIG. 8). All animals (female, n=7 per group) had Tachykinin 1-DREADD (hTac1-hM4D) injected into the trigeminal ganglion unilaterally. Average pin-prick response scores (±SEM) were plotted following intraperitoneal (i.p.) administration of CNO or vehicle.
smiles,measurement,setting,value
"C[N+]1([O-])CCN(C2=Nc3cc(Cl)ccc3Nc3ccccc32)CC1 [CNO, clozapine N-oxide]","pin-prick response score, contralateral vibrissal pad","F=0.01, P=0.9",no significant effect
same,"pin-prick response score, ipsilateral vibrissal pad","F=0.1, P=0.8",no significant effect
